Publication PMC9930429, “Wogonin attenuates the pathogenicity of Streptococcus pneumoniae by double‐target inhibition of Pneumolysin and Sortase A” (Journal of Cellular and Molecular Medicine, 2023)

Molecular target: Pneumolysin (PLY) (Streptococcus pneumoniae, UniProt Q04IN8)
Assay: biochemical

Pneumolysin (PLY), sequence (Q04IN8 2-471 limits assumed): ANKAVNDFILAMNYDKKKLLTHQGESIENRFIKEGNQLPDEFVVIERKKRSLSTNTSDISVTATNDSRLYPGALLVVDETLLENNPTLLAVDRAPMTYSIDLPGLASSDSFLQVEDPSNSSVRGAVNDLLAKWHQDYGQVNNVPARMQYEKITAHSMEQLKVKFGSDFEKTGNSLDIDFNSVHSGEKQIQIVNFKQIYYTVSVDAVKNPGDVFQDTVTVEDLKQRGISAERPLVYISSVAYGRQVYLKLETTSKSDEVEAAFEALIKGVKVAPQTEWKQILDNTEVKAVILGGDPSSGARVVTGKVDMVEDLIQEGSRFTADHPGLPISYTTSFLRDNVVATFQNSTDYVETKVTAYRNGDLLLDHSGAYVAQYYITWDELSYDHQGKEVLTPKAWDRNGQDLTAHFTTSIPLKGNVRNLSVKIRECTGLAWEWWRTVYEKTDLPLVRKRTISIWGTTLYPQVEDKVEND

## COc1c(O)cc(O)c2c(=O)cc(-c3ccccc3)oc12 [wogonin]
  IC50: 186 µM
